Assay results from patent publication US11802111B2, “Cyclobutyl amide monoacylglycerol lipase modulators” (Janssen Pharmaceutica NV, priority 2020, dated 2023).

Molecular target: human MGL from HeLa cells (Homo sapiens (Human), UniProt Q99685)
Assay: MGL in vitro activity assay ([glycerol-1,3-3H]-oleoyl glycerol hydrolysis, activated carbon filtration)
Assay type: biochemical
Details: 300 nM [Glycerol-1,3-3H]-oleoyl glycerol, one hour
How it was run: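 Activity measured as tritium in the flow-through after activated carbon filtration of a 1 h reaction containing 300 nM 3H-oleoyl glycerol, compound and HeLa-derived human MGL. Compounds screened at 10 μM; IC50 series start at an empirically chosen highest concentration.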

human MGL from HeLa cells, sequence (Q99685 whole entry): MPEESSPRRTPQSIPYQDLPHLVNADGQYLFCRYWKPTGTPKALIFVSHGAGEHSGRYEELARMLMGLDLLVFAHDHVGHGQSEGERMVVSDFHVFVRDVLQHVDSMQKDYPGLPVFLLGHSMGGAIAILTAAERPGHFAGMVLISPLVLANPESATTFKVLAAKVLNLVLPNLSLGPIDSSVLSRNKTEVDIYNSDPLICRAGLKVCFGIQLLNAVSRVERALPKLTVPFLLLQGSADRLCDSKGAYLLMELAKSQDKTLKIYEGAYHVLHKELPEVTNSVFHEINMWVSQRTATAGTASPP

IC50 | SMILES
178 nM | CC(C)(C)c1cc(C2CCC3(CC2)CN(C(=O)[C@H]2C[C@@](C)(O)C2)C3)on1 [Example 382, (7-(3-(tert-Butyl)isoxazol-5-yl)-2-azaspiro[3.5]nonan-2-yl)((1s,3s)-3-hydroxy-3-methylcyclobutyl)methanone]
180 nM | Cn1cc(C2CCC3(CC2)CN(C(=O)[C@H]2C[C@@](C)(O)C2)C3)c2cccnc21 [Example 383, ((1s,3s)-3-Hydroxy-3-methylcyclobutyl)(7-(1-methyl-1H-pyrrolo[2,3-b]pyridin-3-yl)-2-azaspiro[3.5]nonan-2-yl)methanone]
97 nM | Cn1ccc2ccc(C3CCC4(CC3)CN(C(=O)[C@H]3C[C@@](C)(O)C3)C4)nc21 [Example 384, ((1s,3s)-3-Hydroxy-3-methylcyclobutyl)(7-(1-methyl-1H-pyrrolo[2,3-b]pyridin-6-yl)-2-azaspiro[3.5]nonan-2-yl)methanone]
30 nM | CC(C)n1ccc2ccc(C3CCC4(CC3)CN(C(=O)[C@H]3C[C@@](C)(O)C3)C4)nc21 [Example 385, ((1s,3s)-3-Hydroxy-3-methylcyclobutyl)(7-(1-isopropyl-1H-pyrrolo[2,3-b]pyridin-6-yl)-2-azaspiro[3.5]nonan-2-yl)methanone]
19 nM | Cn1cc(C(F)(F)F)c2ccc(C3CCC4(CC3)CN(C(=O)[C@H]3C[C@@](C)(O)C3)C4)nc21 [Example 386, ((1s,3s)-3-Hydroxy-3-methylcyclobutyl)(7-(1-methyl-3-(trifluoromethyl)-1H-pyrrolo[2,3-b]pyridin-6-yl)-2-azaspiro[3.5]nonan-2-yl)methanone]
68 nM | C[C@]1(O)C[C@@H](C(=O)N2CC3(CCC(c4ccc5ccn(CC(F)(F)F)c5n4)CC3)C2)C1 [Example 387, ((1s,3s)-3-Hydroxy-3-methylcyclobutyl)(7-(1-(2,2,2-trifluoroethyl)-1H-pyrrolo[2,3-b]pyridin-6-yl)-2-azaspiro[3.5]nonan-2-yl)methanone]
198 nM | C[C@]1(O)C[C@@H](C(=O)N2CC3(CCC(c4cc5ccccn5n4)CC3)C2)C1 [Example 388, ((1s,3s)-3-Hydroxy-3-methylcyclobutyl)(7-(pyrazolo[1,5-c]pyridin-2-yl)-2-azaspiro[3.5]nonan-2-yl)methanone]
101 nM | C[C@]1(O)C[C@@H](C(=O)N2CC3(CCC(c4cccc5ccnn45)CC3)C2)C1 [Example 389, ((1s,3s)-3-Hydroxy-3-methylcyclobutyl)(7-(pyrazolo[1,5-a]pyridin-7-yl)-2-azaspiro[3.5]nonan-2-yl)methanone]
722 nM | C[C@]1(O)C[C@@H](C(=O)N2CC3(CCC(c4cccc5nccn45)CC3)C2)C1 [Example 390]
1270 nM | C[C@]1(O)C[C@@H](C(=O)N2CC3(CCC(c4cn5ccccc5n4)CC3)C2)C1 [Example 391]
790 nM | C[C@]1(O)C[C@@H](C(=O)N2CC3(CCC(c4cnc5ccccn45)CC3)C2)C1 [Example 392, ((1s,3s)-3-Hydroxy-3-methylcyclobutyl)(7-(imidazo[1,2-c]pyridin-3-yl)-2-azaspiro[3.5]nonan-2-yl)methanone]
27 nM | C[C@]1(O)C[C@@H](C(=O)N2CC3(CCC(c4cnn5cccc5c4)CC3)C2)C1 [Example 393, ((1s,3s)-3-Hydroxy-3-methylcyclobutyl)(7-(pyrrolo[1,2-b]pyridazin-3-yl)-2-azaspiro[3.5]nonan-2-yl)methanone]
226 nM | C[C@]1(O)C[C@@H](C(=O)N2CC3(CCC(c4cnn5ccccc45)CC3)C2)C1 [Example 394, ((1s,3s)-3-Hydroxy-3-methylcyclobutyl)(7-(pyrazolo[1,5-c]pyridin-3-yl)-2-azaspiro[3.5]nonan-2-yl)methanone]
354 nM | C[C@]1(O)C[C@@H](C(=O)N2CC3(CCC(c4cc5n(n4)CCCC5)CC3)C2)C1 [Example 395, ((1s,3s)-3-Hydroxy-3-methylcyclobutyl)(7-(4,5,6,7-tetrahydropyrazolo[1,5-a]pyridin-2-yl)-2-azaspiro[3.5]nonan-2-yl)methanone]
